Measurements reported in PMC12368481, “Discovery of a Phenylalanine‐Derived Natural Compound as a Potential Dual Inhibitor of MDM2 and MDMX” (Chemmedchem, 2025).

Biological target: T1, MDMX (Homo sapiens, UniProt O15151)
T1 construct: gene MDM4
T1 sequence (O15151 1-110 limits assumed): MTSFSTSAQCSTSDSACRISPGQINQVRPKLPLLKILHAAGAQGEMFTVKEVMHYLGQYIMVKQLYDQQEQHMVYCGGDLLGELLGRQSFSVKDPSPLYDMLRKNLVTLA
Test: SPR (Biacore T200), multicycle kinetics
Type: binding
Conditions: read-out: MDMX / K D

Kd: 593 nM
SMILES: COC(CCCCCCC(C)C)C(=O)N[C@@H](Cc1ccccc1)C(=O)O (stereo partly shown) [P5]
